{"source": "paper PMC4701221", "about": "“Novel Promising Estrogenic Receptor Modulators: Cytotoxic and Estrogenic Activity of Benzanilides and Dithiobenzanilides” (PLoS ONE, 2016)", "key": {"[1]": {"test_system": "MDA-MB-231 cells", "test": "LDH release assay, MDA-MB-231", "type": "cell-based, human", "details": "72 h, Fig 2", "description": "Cytotoxicity was evaluated by measuring the cell membrane permeability, using a LDH assay kit purchased from Cayman Chemical (Ann Arbor USA). The LDH assay was performed for MCF-7 and MDA-MB-231 cells (seeded at 2×10^4 density). As a positive control cell permeabilization with 1%Triton X-100 was used. The assay was performed 72h after start the incubation. Briefly, the plates were centrifuged at 400 ×g for 5 minutes, and 100 μL of supernatant were transferred from each well to the new 96-well plate and analyzed according to the manufacturer’s protocol. 100 μL of reaction mixture, containing lactic acid, NAD^+, tetrazolium salt and diaphorase, was added to each well. Plates were incubated on an orbital shaker for 30 minutes at room temperature and the absorbance at 490 nm was measured with a plate reader (Biotek Instruments, Elx-800). Results were expressed as a percentage of the total value of the positive control."}, "[2]": {"biological_target": "T1, human ERα receptor (Homo sapiens, UniProt P03372)", "T1 construct": "host or cells: HEK293", "T1 sequence (P03372 1-595)": "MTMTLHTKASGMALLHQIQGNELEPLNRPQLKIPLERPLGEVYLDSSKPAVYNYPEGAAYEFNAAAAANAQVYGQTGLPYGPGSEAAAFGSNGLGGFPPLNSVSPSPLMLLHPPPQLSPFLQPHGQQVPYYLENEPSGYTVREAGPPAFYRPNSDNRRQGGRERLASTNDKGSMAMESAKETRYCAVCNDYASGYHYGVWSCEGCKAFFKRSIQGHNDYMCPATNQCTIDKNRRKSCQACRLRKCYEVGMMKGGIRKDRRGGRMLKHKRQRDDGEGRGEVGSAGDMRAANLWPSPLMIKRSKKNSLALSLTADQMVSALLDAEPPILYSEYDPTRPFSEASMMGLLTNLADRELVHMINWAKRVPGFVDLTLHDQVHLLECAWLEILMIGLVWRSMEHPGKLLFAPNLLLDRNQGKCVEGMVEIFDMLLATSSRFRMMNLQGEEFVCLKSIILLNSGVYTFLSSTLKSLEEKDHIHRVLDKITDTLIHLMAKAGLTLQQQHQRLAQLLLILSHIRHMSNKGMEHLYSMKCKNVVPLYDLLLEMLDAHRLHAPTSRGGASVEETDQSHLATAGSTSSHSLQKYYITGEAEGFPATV", "test": "Estrogen Receptor luciferase assay in HEK293 cells transfected with ERα", "type": "cell-based", "details": "HEK293 transfected with ERα and luciferase reporter, compared with estradiol, Fig 3A/3B", "text": "(§1) To obtain a eukaryotic vector expressing only the ER-α nuclear receptor, a construct was designed by cloning a KpnI-BamHI fragment from plasmid pEGFP-C1-ERα containing the ERα coding sequence that includes a stop signal into the pEGFP-N3 plasmid (Clontech Laboratories, Palo Alto, CA) under the control of the CMV promoter. This construction was termed pEGFP-N-ERα, and although it encoded both human ERα receptor and GFP protein, only the former is expressed. For mock transfections, pEGFP-N3 plasmid was digested with BglII and NotI and religated after polishing DNA ends to remove GFP coding sequence. Plasmid sequence was confirmed by automatic sequencing. Prior to transfection, cells were seeded in 48 well plates at density of 1.5 x 10^4 cells/well and incubated for 24 h to reach a cell confluence of 80–90%. […] MCF-7 cells, which endogenously express ERα receptor, were transfected with p3xERRE/ERE-luciferase plus the pRLTK Renilla luciferase control plasmid (95:5). Firefly and Renilla luciferase activities were measured using the Dual Luciferase Assay System (Promega, Madison, WI, USA), following a standard protocol using a Sirius L luminometer (Berthold Technologies, Bad Wildbad, Germany). Data were expressed as relative changes in luciferase activity and normalized to 100%."}, "[3]": {"biological_target": "T2, estrogen receptor (Homo sapiens, UniProt P03372)", "T2 construct": "MCF-7 cells, which endogenously express ERα receptor; endogenous in cells; host or cells: MCF-7", "T2 sequence (P03372 1-595)": "T1 sequence (P03372 1-595)", "test": "Estrogen Receptor luciferase assay in MCF-7 cells (endogenous ER)", "type": "cell-based", "details": "MCF-7 transfected with p3xERRE/ERE-luciferase, Fig 3C", "text": "as §1"}, "[4]": {"test_system": "ERα transfected HEK293 cells", "test": "MTT cell viability, ERα transfected HEK293 cells", "type": "cell-based, human", "details": "0–100 μM, 72 h, Fig 6B", "description": "(§2) Compounds were dissolved in DMSO to the final concentration of 100 μM. A549, CCD39Lu, MCF-7, MDA-MB-231 and MCF-12A cells were seeded in 96 wells plates at density 2x10^4 cells/well and incubated overnight as described above. Subsequently, cells were treated with tested compounds at concentrations: 100 μM; 50 μM; 25μM; 12.5μM; 6 μM; 3 μM; 1.5 μM. […] Cells were incubated 72 h at 37°C in a humidified atmosphere containing 5% CO2 in the cell culture media appropriate for each cell line. Then, the medium was aspirated and 170 μl MTT solution (5mg/ml) was added to each well. Plates were incubated for 2 hours at 37°C, and then plates were centrifuged at 1200 rpm for 3 minutes. […] Absorbance at 570 nm (with reference wavelenght 650 nm) was measured using a plate reader (Biotek Instruments, Elx-800). Cell viability was calculated as a percentage relative to the control.\n(§3) Fig 6 Estrogenic and cytotoxic activity of tested compounds in HEK293 cells transfected with wild type ERα receptor or plasmids bearing mutated versions of ERα. […] Results are expressed as mean ± SEM (n = 8). * p < 0.05 was considered statistically significant. […] 48 h after transfection, cells were incubated in the presence of increasing concentrations of compounds 18 for 72 h and cell viability was measured by MTT assay. […]"}, "[5]": {"test_system": "ERα W383S transfected HEK293 cells", "test": "MTT cell viability, ERα W383S transfected HEK293 cells", "type": "cell-based, human", "details": "0–100 μM, 72 h, compared to wild type ERα, Fig 6B", "description": "as §2, §3"}}, "note": "Entries after “also recorded” stand apart in the source; their conditions may differ."}
{"compound": "Fc1ccc(NC(=S)c2ccc(NC(=S)c3ccc(F)cc3)cc2)cc1", "note": "[Compound 18]", "values": [{"measurement": "LDH release, MDA-MB-231", "setting": "[1]", "result": "non-significant effects"}, {"measurement": "ER dependent transcriptional activity", "setting": "[2]", "result": "capable to mediate ER dependent transcriptional activity in a similar mode than estradiol; also recorded: higher transcriptional activity at all assayed concentrations compared with estradiol"}, {"measurement": "Transcriptional (luciferase) activity in MCF-7", "setting": "[3]", "result": "significantly higher transcriptional activity compared to estradiol"}, {"measurement": "Cell viability, ERα transfected HEK293", "setting": "[4]", "result": "significantly decreased cell viability"}, {"measurement": "Cell viability, ERα W383S transfected HEK293", "setting": "[5]", "result": "decrease was significantly smaller"}]}
